Some results are limits rather than exact numbers.

The target in the first test is T1, Human NK1 Receptor (Homo sapiens, UniProt P25103).
T1 construct: endogenous in cells; host or cells: Human lymphoma IM9 cells (whole cells)
T1 sequence (P25103 whole entry): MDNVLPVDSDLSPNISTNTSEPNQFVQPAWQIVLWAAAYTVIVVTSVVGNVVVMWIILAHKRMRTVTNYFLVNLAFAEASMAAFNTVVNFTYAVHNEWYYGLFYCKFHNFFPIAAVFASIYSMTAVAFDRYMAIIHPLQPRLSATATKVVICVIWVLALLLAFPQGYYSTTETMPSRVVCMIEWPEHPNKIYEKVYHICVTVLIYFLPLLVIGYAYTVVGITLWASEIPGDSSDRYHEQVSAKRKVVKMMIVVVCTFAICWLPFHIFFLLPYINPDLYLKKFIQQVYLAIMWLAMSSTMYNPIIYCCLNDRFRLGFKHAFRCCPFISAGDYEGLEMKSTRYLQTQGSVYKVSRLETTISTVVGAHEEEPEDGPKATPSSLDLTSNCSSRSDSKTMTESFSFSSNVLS
In words: In Vitro Human NK1 Receptor Binding Assay ([125I]Bolton-Hunter substance P displacement, IM9 cells). The following applies: Human lymphoma IM9 cells, [125I]Bolton-Hunter substance P; Table 3, array-synthesis products; read-out: IC50 (nM) hNK1. In outline: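 Radioligand displacement on whole IM9 human lymphoma cells (2.5×10^6 cells/mL) using [125I]Bolton-Hunter substance P (0.05-0.1 nM), 50 min at 21° C in Tris pH 7.4/MnCl2 buffer with protease inhibitors. Non-specific binding defined by […] [Sar9, Met(O2)11] substance P. Filtration, gamma counting, iterative curve fitting.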
Broadly, the IC50 is the concentration needed to halve the response being measured. Consider `O=C(NCCCn1ccnc1)C(Cc1c[nH]c2ccccc12)NCc1cc2ccccc2o1` (stereo not shown) [Example 201, 2-[(Benzofuran-2-ylmethyl)-amino]-N-(3-imidazol-1-yl-propyl)-3-(1H-indol-3-yl)-propionamide], for which the IC50 was over 10000 nM.
Take `O=C(NCCc1c[nH]cn1)C(Cc1c[nH]c2ccccc12)NCc1cc2ccccc2o1` (stereo not shown) [Example 206, 2-[(Benzofuran-2-ylmethyl)-amino]-N-[2-(1H-imidazol-4-yl)-ethyl]-3-(1H-indol-3-yl)-propionamide]: the IC50 amounted to 6680 nM.
With `O=C(O)C1CCC(CNC(=O)C(Cc2c[nH]c3ccccc23)NCc2cc3ccccc3o2)CC1` (stereo not shown) [Example 286, 4-{[2-[(Benzofuran-2-ylmethyl)-amino]-3-(1H-indol-3-yl)-propionylamino]-methyl}-cyclohexanecarboxylic acid], the IC50 is over 10000 nM.
As to `CC(C)(CNC(=O)C(Cc1c[nH]c2ccccc12)NCc1cc2ccccc2o1)c1ccccc1` (stereo not shown) [Example 257, 2-[(Benzofuran-2-ylmethyl)-amino]-3-(1H-indol-3-yl)-N-(2-methyl-2-phenyl-propyl)-propionamide], the IC50 was over 10000 nM.
Regarding `O=C(NCCc1ccc(Cl)cc1)C(Cc1c[nH]c2ccccc12)NCc1cc2ccccc2o1` (stereo not shown) [Example 288, 2-[(Benzofuran-2-ylmethyl)-amino]-N-[2-(4-chloro-phenyl)-ethyl]-3-(1H-indol-3-yl)-propionamide], the 50% inhibitory concentration (IC50) turned out to be 136 nM.
As for `O=C(NC1CCc2ccccc21)C(Cc1c[nH]c2ccccc12)NCc1cc2ccccc2o1` (stereo not shown) [Example 195, 2-[(Benzofuran-2-ylmethyl)-amino]-N-indan-1-yl-3-(1H-indol-3-yl)-propionamide], the IC50 was determined as 1750 nM.
On the same count and under the same terms, in the case of `O=C(NCc1ccc2c(c1)OCO2)C(Cc1c[nH]c2ccccc12)NCc1cc2ccccc2o1` (stereo not shown) [Example 267, N-Benzo[1,3]-dioxol-5-ylmethyl-2-[(benzofuran-2-ylmethyl)-amino]-3-(1H-indol-3-yl)-propionamide] it was 55 nM; in that of `O=C(NCC1CCNCC1)C(Cc1c[nH]c2ccccc12)NCc1cc2ccccc2o1` (stereo not shown) [Example 203, 2-[(Benzofuran-2-ylmethyl)-amino]-3-(1H-indol-3-yl)-N-piperidin-4-ylmethyl-propionamide], over 10000 nM.
For the compound `COC(=O)C(NC(=O)C(Cc1c[nH]c2ccccc12)NCc1cc2ccccc2o1)c1ccccc1` (stereo not shown) [Example 304, [2-[(Benzofuran-2-ylmethyl)-amino]-3-(1H-indol-3-yl)-propionylamino]-phenyl-acetic acid methyl ester], the IC50 came to 43 nM.
With `O=C(NC(CO)CC1CCCCC1)C(Cc1c[nH]c2ccccc12)NCc1cc2ccccc2o1` (stereo not shown) [Example 277, 2-[(Benzofuran-2-ylmethyl)-amino]-N-(2-cyclohexyl-1-hydroxymethyl-ethyl)-3-(1H-indol-3-yl)-propionamide], the IC50 was determined as 2200 nM.

The test is the same for the next values; noted with them: Table 4; [125I]Bolton-Hunter substance P displacement, human IM9 cells; read-out: IC50 (nM) hNK1.
Consider `CC(NC(=O)C(C)(Cc1c[nH]c2ccccc12)NCc1ccc(OCCN(C)C)cc1)c1ccccc1` (stereo not shown) [compound 331, 2-[4-(2-Dimethylamino-ethoxy)-benzylamino]-3-(1H-indol-3-yl)-2-methyl-N-(1-phenyl-ethyl)-propionamide], for which the IC50 was over 10000 nM.
As for “3-(1H-Indol-3-yl)-2methyl-N-(1-phenyl-ethyl)-2-[(1-phenyl-1H-indol-2-ylmethyl)-amino]-propionamide [compound 333]”, the IC50 was determined as 3610 nM.
With `CC(NC(=O)C(C)(Cc1c[nH]c2ccccc12)NCc1ccc(C=Cc2ccccc2)o1)c1ccccc1` (stereo not shown) [compound 325, 3-(1H-Indol-3-yl)-2-methyl-N-(1-phenyl-ethyl)-2-[(5-styryl-furan-2-ylmethyl)-amino]-propionamide], the concentration for half-maximal inhibition (IC50) is 72 nM.
On the same count and under the same terms, in the case of `CC(NC(=O)C(C)(Cc1c[nH]c2ccccc12)NCc1ccc2c(c1)Cc1ccccc1-2)c1ccccc1` (stereo not shown) [compound 354, 2-[(9H-Fluoren-2-ylmethyl)-amino]-3-(1H-indol-3-yl)-2-methyl-N-(1-phenyl-ethyl)-propionamide] it was 1730 nM.

The same test, now with this note: human NK1 receptor, IM9 cells, [125I]Bolton-Hunter substance P; read-out: IC50 (nM) hNK1.
Consider `CC(Cc1c[nH]c2ccccc12)(NCc1cc2ccccc2o1)C(=O)NCc1ccc([N+](=O)[O-])o1` (stereo not shown) [compound 100, 2-[(Benzofuran-2-ylmethyl)-amino]-3-(1H-indol-3-yl)-2-methyl-N-(5-nitro-furan-2-ylmethyl)-propionamide], for which the IC50 was found to be 390 nM.
Take `CC(Cc1c[nH]c2ccccc12)(NCc1cc2ccccc2o1)C(=O)NCC(c1ccccc1)c1ccccn1` (stereo not shown) [compound 80, 2-[(Benzofuran-2-ylmethyl)-amino]-3-(1H-indol-3-yl)-2-methyl-N-(2-phenyl-2-pyridin-2-yl-ethyl)-propionamide]: the IC50 is over 10000 nM.
For the compound `CC(Cc1c[nH]c2ccccc12)(NCc1cc2ccccc2o1)C(=O)NCc1c(F)cccc1F` (stereo not shown) [compound 190, 2-[(Benzofuran-2-ylmethyl)-amino]-N-(2,6-difluoro-benzyl)-3-(1H-indol-3-yl)-2-methyl-propionamide], the IC50 was determined as 3540 nM.
For `Cc1[nH]cnc1CCNC(=O)C(C)(Cc1c[nH]c2ccccc12)NCc1cc2ccccc2o1` (stereo not shown) [compound 101, 2-[(Benzofuran-2-ylmethyl)-amino]-3-(1H-indol-3-yl)-2-methyl-N-[2-(5-methyl-1H-imidazol-4-yl)-ethyl]-propionamide], the IC50 was over 10000 nM.
Consider `CC(Cc1c[nH]c2ccccc12)(NCc1cc2ccccc2o1)C(=O)NCc1ccc(F)c(F)c1` (stereo not shown) [compound 167, 2-[(Benzofuran-2-ylmethyl)-amino]-N-(3,4-difluoro-benzyl)-3-(1H-indol-3-yl)-2-methyl-propionamide], for which the IC50 was determined as 29 nM.
`CC(Cc1c[nH]c2ccccc12)(NCc1cc2ccccc2o1)C(=O)NCCC1CCCCC1` (stereo not shown) [compound 70, 2-[(Benzofuran-2-ylmethyl)-amino]-N-(2-cyclohexyl-ethyl)-3-(1H-indol-3-yl)-2-methyl-propionamide]: the IC50 came to 216 nM.
Take `CC(Cc1c[nH]c2ccccc12)(NCc1cc2ccccc2o1)C(=O)NCc1ccc(F)cc1Cl` (stereo not shown) [compound 168]: the 50% inhibitory concentration (IC50) was 230 nM.
Regarding `CC(Cc1c[nH]c2ccccc12)(NCc1cc2ccccc2o1)C(=O)NCc1ccccc1Br` (stereo not shown) [compound 65, 2-[(Benzofuran-2-ylmethyl)-amino]-N-(2-bromo-benzyl)-3-(1H-indol-3-yl)-2-methyl-propionamide], the IC50 is 700 nM.
On to `CC(Cc1c[nH]c2ccccc12)(NCc1cc2ccccc2o1)C(=O)NCC(c1ccccc1)c1ccccc1` (stereo not shown) [compound 98, 2-[(Benzofuran-2-ylmethyl)-amino]-N-(2,2-diphenyl-ethyl)-3-(1H-indol-3-yl)-2-methyl-propionamide], for which the IC50 is over 10000 nM.
Consider `CC(CNC(=O)C(C)(Cc1c[nH]c2ccccc12)NCc1cc2ccccc2o1)c1ccccc1` (stereo not shown) [compound 140, 2-[(Benzofuran-2-ylmethyl)-amino]-3-(1H-indol-3-yl)-2-methyl-N-(2-phenyl-propyl)-propionamide], for which the IC50 is over 10000 nM.
As for `CC(Cc1c[nH]c2ccccc12)(NCc1cc2ccccc2o1)C(=O)NCCN1CCOC1=O` (stereo not shown) [compound 96, 2-[(Benzofuran-2-ylmethyl)-amino]-3-(1H-indol-3-yl)-2-methyl-N-[2-(2-oxo-oxazolidin-3-yl)-ethyl]-propionamide], the IC50 is over 10000 nM.
For the compound `CC(Cc1c[nH]c2ccccc12)(NCc1cc2ccccc2o1)C(=O)NCc1cccc(Cl)c1` (stereo not shown) [compound 77, 2-[(Benzofuran-2-ylmethyl)-amino]-N-(3-chloro-benzyl)-3-(1H-indol-3-yl)-2-methyl-propionamide], the IC50 stood at 17 nM.
Turning to `COc1cccc(CNC(=O)C(C)(Cc2c[nH]c3ccccc23)NCc2cc3ccccc3o2)c1OC` (stereo not shown) [compound 142, 2-[(Benzofuran-2-ylmethyl)-amino]-N-(2,3-dimethoxy-benzyl)-3-(1H-indol-3-yl)-2-methyl-propionamide], the IC50 turned out to be 1960 nM.
For the compound `CCC(NC(=O)C(C)(Cc1c[nH]c2ccccc12)NCc1cc2ccccc2o1)c1ccccc1` (stereo not shown) [compound 63, 2-[(Benzofuran-2-ylmethyl)-amino]-3-(1H-indol-3-yl)-2-methyl-N-(1-phenyl-propyl)-propionamide], the IC50 was found to be 58 nM.
For `CC(NC(=O)C(C)(Cc1c[nH]c2ccccc12)NCc1cc2ccccc2o1)C(C)(C)C` (stereo not shown) [compound 82, 2-[(Benzofuran-2-ylmethyl)-amino]-3(1H-indol-3-yl)-2-methyl-N-(1,2,2-trimethyl-propyl)-propionamide], the IC50 was 1140 nM.
As for `CC(CN1CCCC1=O)NC(=O)C(C)(Cc1c[nH]c2ccccc12)NCc1cc2ccccc2o1` (stereo not shown) [compound 93, 2-[(Benzofuran-2-ylmethyl)-amino]-3-(1H-indol-3-yl)-2-methyl-N-[1-methyl-2-(2-oxo-pyrrolidin-1-yl)-ethyl]-propionamide], the half-maximal inhibitory concentration (IC50) was over 10000 nM.
With `CC(Cc1c[nH]c2ccccc12)(NCc1cc2ccccc2o1)C(=O)NCC1(c2ccccc2)OCCO1` (stereo not shown) [compound 105], the IC50 is over 10000 nM.
Same read-out and setting: as for `CC(Cc1c[nH]c2ccccc12)(NCc1cc2ccccc2o1)C(=O)NCc1ccncc1` (stereo not shown) [compound 25, 2-[(Benzofuran-2-ylmethyl)-amino]-3-(1H-indol-3-yl)-2-methyl-N-pyridin-4-ylmethyl-propionamide], the figure is 131 nM.
As to `CC(Cc1c[nH]c2ccccc12)(NCc1cc2ccccc2o1)C(=O)NCCN1CCCC1` (stereo not shown) [compound 155, 2-[(Benzofuran-2-ylmethyl)-amino]-3-(1H-indol-3-yl)-2-methyl-N-(2-pyrrolidin-1-yl-ethyl)-propionamide], the IC50 was over 10000 nM.
Turning to `CC(Cc1c[nH]c2ccccc12)(NCc1cc2ccccc2o1)C(=O)NCC1CCCO1` (stereo not shown) [compound 135, 2-[(Benzofuran-2-ylmethyl)-amino]-3-(1H-indol-3-yl)-2-methyl-N-(tetrahydro-furan-2-ylmethyl)-propionamide], the concentration for half-maximal inhibition (IC50) was 1200 nM.

(Values after US6472418B1, “Non-peptide NK1 receptors antagonists” (Warner-Lambert Company, priority 1998, dated 2002).)
